Results as given in patent US12059412B2, “Pharmaceutical composition containing (R)-N-[1-(3,5-difluoro-4-methanesulfonylamino-phenyl)-ethyl]-3-(2-propyl-6-trifluoromethylpyridin-3-yl)-acrylamide and method for inhibiting crystal formation thereof” (Amorepacific Corporation, priority 2018, dated 2024).

Assay: Solubility of compound of Formula 1 in various solvents (excess compound, shaking, HPLC)
Format: physicochemical
Details: Ethanol; 25° C., 24 hours
Experimental: Since solvent that gives high solubility can dissolve the compound of Formula 1 in a small amount compared to a solvent that gives low solubility, in particular, when formulated into an external preparation of skin, a relatively higher amount of water may be contained, so that the feeling of use can be further enhanced.
An excessive amount of the compound of Formula 1 was added to 1 mL of each solvent shown in Table 1 below, and stirred at 25° C. at 200 rpm for 24 hours while shaking
(Shaking incubator, SI 600R, JEIO TECH, Korea). Thereafter, centrifugation was performed at 10,000 rpm for 10 minutes, and the supernatant was filtered using a membrane filter (0.2 μm), diluted appropriately with methanol, and analyzed by HPLC.

CCCc1nc(C(F)(F)F)ccc1/C=C/C(=O)N[C@H](C)c1cc(F)c(NS(C)(=O)=O)c(F)c1 [compound of Formula 1, (R)-N-[1-(3,5-difluoro-4-methanesulfonylamino-phenyl)-ethyl]-3-(2-propyl-6-trifluoromethyl-pyridin-3-yl)-acrylamide]
Solubility: 75.32 mg/mL
